Patent publication US20230085307A1, “PYRIDAZINONE COMPOUND AND HERBICIDE” (NISSAN CHEMICAL CORPORATION, priority 2019, published 2023)

Columns and labels:
rice flat sedge = assay: Test Example 3: herbicidal effect by foliage application, Wagner pot (Table 18, symbol E); type: in vivo, rice flat sedge (Cyperus iria)
Method in brief: (§1)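 Plants were sown in alluvial soil held under 0.1–0.5 cm standing water and grown 14 days in a greenhouse at 25–30 °C. An emulsifiable formulation, water-diluted to the set dose, was then sprayed onto the foliage, and effects were scored three weeks later using previously defined criteria.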

oval-leafed pondweed = assay: Test Example 1: herbicidal activity, application before weed generation under submerged conditions (Table 16, symbol C); type: in vivo, oval-leafed pondweed (Monochoria vaginalis); conditions: amount of applied herbicide 320 g/ha
Method in brief: (§2)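 Submerged Wagner pots (alluvial soil, 4 cm water) sown with weed seeds and planted with 2.5-leaf rice seedlings; emulsifiable concentrate diluted in water applied to water surface on sowing day. Held in greenhouse at 25-30 °C; injury scored 0-5 by herbicidal rate after three weeks.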

wild oat [1] = assay: Test Example 5: herbicidal effect by foliage application, plastic box (Table 20, symbol I); type: in vivo, wild oat (Avena fatua); conditions: foliage application, 320 g/ha, three weeks after application
Method in brief: (§3)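 Foliar spray test: emulsion formulation diluted in water to a set application rate, sprayed onto 14-day-old plants raised in diluvial soil at 25° C to 30° C under glass. Both herbicidal effect and crop effect rated visually three weeks later.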

windgrass [2] = assay: Test Example 4: herbicidal effect by soil treatment (Table 19, symbol L); type: in vivo, windgrass (Apera spica-venti); conditions: amount of applied herbicide 320 g/ha
Method in brief: (§4)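 Step 1: sow seeds in sterilized diluvial soil, cover ~1.5 cm. Step 2: spray diluted emulsion onto soil surface at predetermined rate. Step 3: greenhouse, 25–30° C, three weeks. Step 4: grade effect on each plant by earlier criteria.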

Japanese bulrush = assay: Test Example 1: herbicidal activity, application before weed generation under submerged conditions (Table 16, symbol B); type: in vivo, Japanese bulrush (Schoenoplectus juncoides); conditions: amount of applied herbicide 320 g/ha
Method in brief: as §2

velvetleaf [3] = assay: Test Example 5: herbicidal effect by foliage application, plastic box (Table 20, symbol M); type: in vivo, velvetleaf (Abutilon theophrasti); conditions: foliage application, 320 g/ha, three weeks after application
Method in brief: as §3

blackgrass [4] = assay: Test Example 4: herbicidal effect by soil treatment (Table 19, symbol J); type: in vivo, blackgrass (Alopecurus myosuroides); conditions: amount of applied herbicide 320 g/ha
Method in brief: as §4

persian speedwell [5] = assay: Test Example 5: herbicidal effect by foliage application, plastic box (Table 20, symbol R); type: in vivo, Persian speedwell (Veronica persica); conditions: foliage application, 320 g/ha, three weeks after application
Method in brief: as §3

barnyard grass [6] = assay: Test Example 4: herbicidal effect by soil treatment (Table 19, symbol H); type: in vivo, barnyard grass (Echinochloa crus-galli); conditions: amount of applied herbicide 320 g/ha
Method in brief: as §4

barnyard grass [7] = assay: Test Example 5: herbicidal effect by foliage application, plastic box (Table 20, symbol H); type: in vivo, barnyard grass (Echinochloa crus-galli); conditions: foliage application, 320 g/ha, three weeks after application
Method in brief: as §3

barnyard grass [8] = assay: Test Example 3: herbicidal effect by foliage application, Wagner pot (Table 18, symbol H); type: in vivo, barnyard grass (Echinochloa crus-galli)
Method in brief: as §1

lambsquarters [9] = assay: Test Example 5: herbicidal effect by foliage application, plastic box (Table 20, symbol O); type: in vivo, lambsquarters (Chenopodium album); conditions: foliage application, 320 g/ha, three weeks after application
Method in brief: as §3

wild oat [10] = assay: Test Example 4: herbicidal effect by soil treatment (Table 19, symbol I); type: in vivo, wild oat (Avena fatua); conditions: amount of applied herbicide 320 g/ha
Method in brief: as §4

southern crabgrass [11] = assay: Test Example 5: herbicidal effect by foliage application, plastic box (Table 20, symbol F); type: in vivo, southern crabgrass (Digitaria ciliaris); conditions: foliage application, 320 g/ha, three weeks after application
Method in brief: as §3

Italian ryegrass [12] = assay: Test Example 4: herbicidal effect by soil treatment (Table 19, symbol K); type: in vivo, Italian ryegrass (Lolium multiflorum); conditions: amount of applied herbicide 320 g/ha
Method in brief: as §4

lambsquarters [13] = assay: Test Example 4: herbicidal effect by soil treatment (Table 19, symbol O); type: in vivo, lambsquarters (Chenopodium album); conditions: amount of applied herbicide 320 g/ha
Method in brief: as §4

southern crabgrass [14] = assay: Test Example 4: herbicidal effect by soil treatment (Table 19, symbol F); type: in vivo, southern crabgrass (Digitaria ciliaris); conditions: amount of applied herbicide 320 g/ha
Method in brief: as §4

persian speedwell [15] = assay: Test Example 4: herbicidal effect by soil treatment (Table 19, symbol R); type: in vivo, Persian speedwell (Veronica persica); conditions: amount of applied herbicide 320 g/ha
Method in brief: as §4

redroot pigweed = assay: Test Example 4: herbicidal effect by soil treatment (Table 19, symbol N); type: in vivo, redroot pigweed (Amaranthus retroflexus); conditions: amount of applied herbicide 320 g/ha
Method in brief: as §4

Italian ryegrass [16] = assay: Test Example 5: herbicidal effect by foliage application, plastic box (Table 20, symbol K); type: in vivo, Italian ryegrass (Lolium multiflorum); conditions: foliage application, 320 g/ha, three weeks after application
Method in brief: as §3

chickweed = assay: Test Example 4: herbicidal effect by soil treatment (Table 19, symbol P); type: in vivo, common chickweed (Stellaria media); conditions: amount of applied herbicide 320 g/ha
Method in brief: as §4

green foxtail [17] = assay: Test Example 5: herbicidal effect by foliage application, plastic box (Table 20, symbol G); type: in vivo, green foxtail (Setaria viridis); conditions: foliage application, 320 g/ha, three weeks after application
Method in brief: as §3

windgrass [18] = assay: Test Example 5: herbicidal effect by foliage application, plastic box (Table 20, symbol L); type: in vivo, windgrass (Apera spica-venti); conditions: foliage application, 320 g/ha, three weeks after application
Method in brief: as §3

Chinese sprangletop = assay: Test Example 3: herbicidal effect by foliage application, Wagner pot (Table 18, symbol D); type: in vivo, chinese sprangletop (Leptochloa chinensis)
Method in brief: as §1

green foxtail [19] = assay: Test Example 4: herbicidal effect by soil treatment (Table 19, symbol G); type: in vivo, green foxtail (Setaria viridis); conditions: amount of applied herbicide 320 g/ha
Method in brief: as §4

velvetleaf [20] = assay: Test Example 4: herbicidal effect by soil treatment (Table 19, symbol M); type: in vivo, velvetleaf (Abutilon theophrasti); conditions: amount of applied herbicide 320 g/ha
Method in brief: as §4

blackgrass [21] = assay: Test Example 5: herbicidal effect by foliage application, plastic box (Table 20, symbol J); type: in vivo, blackgrass (Alopecurus myosuroides); conditions: foliage application, 320 g/ha, three weeks after application
Method in brief: as §3

late watergrass = assay: Test Example 1: herbicidal activity, application before weed generation under submerged conditions (Table 16, symbol A); type: in vivo, late watergrass (Echinochloa oryzicola); conditions: amount of applied herbicide 320 g/ha
Method in brief: as §2

[22] = amount of applied herbicide 320 g/ha

Structure (SMILES) | Herbicidal effect, C: oval-leafed pondweed (oval-leafed pondweed) | herbicidal effect on wild oat (I) (wild oat [1]) | L: windgrass, herbicidal effect grade (windgrass [2]) | Herbicidal effect, B: Japanese bulrush (Japanese bulrush) | herbicidal effect on velvetleaf (M) (velvetleaf [3]) | J: blackgrass, herbicidal effect grade (blackgrass [4]) | herbicidal effect on persian speedwell (R) (persian speedwell [5]) | H: barnyard grass, herbicidal effect grade (barnyard grass [6]) | herbicidal effect on barnyard grass (H) (barnyard grass [7]) | herbicidal effect on lambsquarters (O) (lambsquarters [9]) | I: wild oat, herbicidal effect grade (wild oat [10]) | herbicidal effect on southern crabgrass (F) (southern crabgrass [11]) | K: Italian ryegrass, herbicidal effect grade (Italian ryegrass [12]) | O: lambsquarters, herbicidal effect grade (lambsquarters [13]) | F: southern crabgrass, herbicidal effect grade (southern crabgrass [14]) | R: persian speedwell, herbicidal effect grade (persian speedwell [15]) | N: redroot pigweed, herbicidal effect grade (redroot pigweed) | herbicidal effect on Italian ryegrass (K) (Italian ryegrass [16]) | P: chickweed, herbicidal effect grade (chickweed) | herbicidal effect on green foxtail (G) (green foxtail [17]) | other results
CCCC(=O)Oc1c(C)nn(C)c(=O)c1-c1c(-c2ccccc2OCC)sc2cc(OC)c(Cl)cc12 [5-073] | 4 (Herbicidal rate of 70% or more and less than 90%) | 0 (Herbicidal rate of 5% or less (almost no effect)) | 0 (Herbicidal rate of 5% or less (almost no effect)) | 4 (Herbicidal rate of 70% or more and less than 90%) | 4 (Herbicidal rate of 70% or more and less than 90%) | 0 (Herbicidal rate of 5% or less (almost no effect)) | 0 (Herbicidal rate of 5% or less (almost no effect)) | 0 (Herbicidal rate of 5% or less (almost no effect)) | 5 (Herbicidal rate of 90% or more (almost completely withered)) | 4 (Herbicidal rate of 70% or more and less than 90%) | 0 (Herbicidal rate of 5% or less (almost no effect)) | 5 (Herbicidal rate of 90% or more (almost completely withered)) | 0 (Herbicidal rate of 5% or less (almost no effect)) | 0 (Herbicidal rate of 5% or less (almost no effect)) | 0 (Herbicidal rate of 5% or less (almost no effect)) | 0 (Herbicidal rate of 5% or less (almost no effect)) | 1 (Herbicidal rate of 5% or more and less than 20%) | 0 (Herbicidal rate of 5% or less (almost no effect)) | 0 (Herbicidal rate of 5% or less (almost no effect)) | 5 (Herbicidal rate of 90% or more (almost completely withered)) | herbicidal effect on rice flat sedge (E) (rice flat sedge; 320 g/ha): 0 (Herbicidal rate of 5% or less (almost no effect)); herbicidal effect on barnyard grass (H) (barnyard grass [8]; 320 g/ha): 5 (Herbicidal rate of 90% or more (almost completely withered)); herbicidal effect on windgrass (L) (windgrass [18]): 3 (Herbicidal rate of 40% or more and less than 70%); herbicidal effect on Chinese sprangletop (D) (Chinese sprangletop; 320 g/ha): 0 (Herbicidal rate of 5% or less (almost no effect)); G: green foxtail, herbicidal effect grade (green foxtail [19]): 2 (Herbicidal rate of 20% or more and less than 40%); M: velvetleaf, herbicidal effect grade (velvetleaf [20]): 0 (Herbicidal rate of 5% or less (almost no effect)); herbicidal effect on blackgrass (J) (blackgrass [21]): 0 (Herbicidal rate of 5% or less (almost no effect)); Herbicidal effect, A: late watergrass (late watergrass): 5 (Herbicidal rate of 90% or more (almost completely withered))
Cc1nn(C)c(=O)c(-c2c(-c3ccc(Cl)cc3)oc3ccc(F)cc23)c1O [9-016] | 0 (Herbicidal rate of 5% or less (almost no effect)) | 4 (Herbicidal rate of 70% or more and less than 90%) | 4 (Herbicidal rate of 70% or more and less than 90%) | 0 (Herbicidal rate of 5% or less (almost no effect)) | 5 (Herbicidal rate of 90% or more (almost completely withered)) | 0 (Herbicidal rate of 5% or less (almost no effect)) | 5 (Herbicidal rate of 90% or more (almost completely withered)) | 4 (Herbicidal rate of 70% or more and less than 90%) | 5 (Herbicidal rate of 90% or more (almost completely withered)) | 5 (Herbicidal rate of 90% or more (almost completely withered)) | 2 (Herbicidal rate of 20% or more and less than 40%) | 4 (Herbicidal rate of 70% or more and less than 90%) | 4 (Herbicidal rate of 70% or more and less than 90%) | 4 (Herbicidal rate of 70% or more and less than 90%) | 3 (Herbicidal rate of 40% or more and less than 70%) | 5 (Herbicidal rate of 90% or more (almost completely withered)) | 5 (Herbicidal rate of 90% or more (almost completely withered)) | 5 (Herbicidal rate of 90% or more (almost completely withered)) | 3 (Herbicidal rate of 40% or more and less than 70%) | 5 (Herbicidal rate of 90% or more (almost completely withered)) | Herbicidal effect on E (rice flat sedge), foliage application (rice flat sedge; [22]): 4 (Herbicidal rate of 70% or more and less than 90%); Herbicidal effect on H (barnyard grass), foliage application (barnyard grass [8]; [22]): 5 (Herbicidal rate of 90% or more (almost completely withered)); herbicidal effect on windgrass (L) (windgrass [18]): 4 (Herbicidal rate of 70% or more and less than 90%); Herbicidal effect on D (Chinese sprangletop), foliage application (Chinese sprangletop; [22]): 5 (Herbicidal rate of 90% or more (almost completely withered)); G: green foxtail, herbicidal effect grade (green foxtail [19]): 4 (Herbicidal rate of 70% or more and less than 90%); M: velvetleaf, herbicidal effect grade (velvetleaf [20]): 1 (Herbicidal rate of 5% or more and less than 20%); herbicidal effect on blackgrass (J) (blackgrass [21]): 4 (Herbicidal rate of 70% or more and less than 90%); Herbicidal effect, A: late watergrass (late watergrass): 3 (Herbicidal rate of 40% or more and less than 70%)
